Positions of bridges follow the written chain, without caps; N, C: chain ends. Residues, ends and D or L forms follow the SMILES beside them.
What was measured:
hKCa2.2 (SK2) = test: Whole-cell patch-clamp, hKCa2.2 current in transfected CHO cells; type: cell-based, human; details: 100 nM; ~3 min
Source text: The scorpion toxins from the α-KTx 2 family also modulate the function of Ca^2+-activated potassium channels, in addition to Kv1 channels. Therefore, we investigated the activity of Cvill6 and Cvill7 toxins on three different types of Ca^2+-activated K^+ channels: (1) hKCa2.2 (SK2), the small-conductance Ca^2+-activated channel; (2) hKCa3.1 (IKCa1, SK4), the intermediate-conductance Ca^2+-activated channels, mainly expressed in T lymphocytes; and (3) mKCa1.1 (BK or MaxiK), the large-conductance voltage- and Ca^2+- activated channel of mice. […] The quantity of native toxins was insufficient to conduct the full dose–response curves at this high concentration range (see above).
Chinese hamster ovary (CHO) cells (generously provided by Yosef Yarden, Weizmann Institute of Science, Rehovot, Israel) or human embryonic kidney (HEK293) cells were cultured and maintained in Dulbecco’s modified Eagle medium (DMEM, Thermo Fisher Scientific, Waltham, MA, USA) supplemented with 2 mM L-glutamine, 10% fetal bovine serum (FBS), 100 µg/mL streptomycin, and 100 U/mL penicillin-g (Sigma-Aldrich, Budapest, Hungary) following standard culturing conditions. […] Cells expressing GFP were identified using a Nikon TE 2000U fluorescence microscope (Nikon, Tokyo, Japan) with bandpass filters set to 455–495 nm for excitation and 515–555 nm for emission. […]

mKCa1.1 (BK or MaxiK) = type: cell-based, mice; details: 100 nM; ~3 min
Source text: Therefore, we investigated the activity of Cvill6 and Cvill7 toxins on three different types of Ca^2+-activated K^+ channels: (1) hKCa2.2 (SK2), the small-conductance Ca^2+-activated channel; (2) hKCa3.1 (IKCa1, SK4), the intermediate-conductance Ca^2+-activated channels, mainly expressed in T lymphocytes; and (3) mKCa1.1 (BK or MaxiK), the large-conductance voltage- and Ca^2+- activated channel of mice. Appropriate depolarization protocols were applied to record the K^+ current through respective KCa channels as shown in the inset of each panel in Figure 6A–C. […] The normalized peak currents (see Section 2.4 or Section 5 for details) for individual cells (n = 5) were averaged at each time point and plotted as a function of time.
HEK 293 cells stably expressing mKCa1.1 1 (BKCa, Kcnma1 gene, generously provided by C. Beeton from Baylor College of Medicine, Houston, TX, USA) or hKv11.1 (hERG1, KCNH2 gene, gifted by H. Wulff from University of California, Davis, CA, USA) were utilized in this study.
To avoid toxin adsorption onto the plastic surfaces of the perfusion system, 0.1 mg/mL of bovine serum albumin (BSA, Sigma-Aldrich, Budapest, Hungary) was also added into all bath solutions prior to the patch-clamp assay.
Whole-cell currents were recorded using the patch-clamp technique in voltage-clamp mode, following standard protocols [73]. […]

Row | SMILES | effect on KCa2.2 current (hKCa2.2 (SK2)) | effect on KCa1.1 current (mKCa1.1 (BK or MaxiK))
1 | CC[C@H](C)[C@H](N)C(=O)N[C@@H](Cc1ccccc1)C(=O)N[C@H](C(=O)N[C@@H](CC(N)=O)C(=O)N[C@H](C(=O)N[C@@H](CCCCN)C(=O)N[C@H]1CSSC[C@@H]2NC(=O)[C@H](CCCCN)NC(=O)CNC(=O)CNC(=O)[C@H](C)NC(=O)[C@H](Cc3c[nH]cn3)NC(=O)[C@H](CCC(N)=O)NC(=O)CNC(=O)[C@H](Cc3ccccc3)NC(=O)[C@H](CCCNC(=N)N)NC(=O)[C@H](CC(=O)O)NC(=O)[C@H](CCCCN)NC(=O)[C@@H]3CSSC[C@@H](C(=O)N[C@@H](Cc4ccc(O)cc4)C(=O)N4CCC[C@H]4C(=O)O)NC(=O)[C@H](CCCCN)NC(=O)[C@H](CSSC[C@H](NC(=O)[C@H](CCC(N)=O)NC(=O)[C@H](CCC(N)=O)NC(=O)[C@@H]4CCCN4C(=O)[C@H](CC(C)C)NC(=O)[C@H](CC(=O)O)NC1=O)C(=O)N[C@@H](CC(C)C)C(=O)N[C@@H](CCCNC(=N)N)C(=O)N1CCC[C@H]1C(=O)N3)NC(=O)[C@H](CCCCN)NC(=O)CNC(=O)[C@H](CC(N)=O)NC(=O)[C@H]([C@@H](C)CC)NC2=O)C(C)C)[C@@H](C)CC [Cvill6] (H-IFINVKCDLPQQCLRPCKDRFGQHAGGKCINGKCKCYP-OH; disulfide 7-29, 13-34, 17-36 (inferred); N-terminus and C-terminus assumed) | Neither Cvill6 nor Cvill7 showed any effect | Neither Cvill6 nor Cvill7 showed any effect
2 | CC[C@H](C)[C@H](NC(=O)[C@H](Cc1ccccc1)NC(=O)[C@@H](N)[C@@H](C)O)C(=O)N[C@@H](CC(N)=O)C(=O)N[C@H](C(=O)N[C@@H](CCCCN)C(=O)N[C@H]1CSSC[C@@H]2NC(=O)[C@H](CCCCN)NC(=O)CNC(=O)CNC(=O)[C@H](C)NC(=O)[C@H](Cc3c[nH]cn3)NC(=O)[C@@H]3CCCN3C(=O)CNC(=O)[C@H](Cc3ccc(O)cc3)NC(=O)[C@H](CC(C)C)NC(=O)[C@H](CC(=O)O)NC(=O)[C@H](CCCCN)NC(=O)[C@@H]3CSSC[C@@H](C(=O)N[C@@H](Cc4ccc(O)cc4)C(=O)N[C@@H](CC(N)=O)C(=O)N[C@@H](CC(N)=O)C(N)=O)NC(=O)[C@H](CCCCN)NC(=O)[C@H](CSSC[C@H](NC(=O)[C@H](CCC(N)=O)NC(=O)[C@H](CCCCN)NC(=O)[C@@H]4CCCN4C(=O)[C@H](CO)NC(=O)[C@H]([C@@H](C)O)NC1=O)C(=O)N[C@@H](CC(C)C)C(=O)N[C@@H](CCCCN)C(=O)N1CCC[C@H]1C(=O)N3)NC(=O)[C@H](CCCCN)NC(=O)CNC(=O)[C@H](CC(N)=O)NC(=O)[C@H](CCSC)NC2=O)C(C)C [Cvill7] (H-TFINVKCTSPKQCLKPCKDLYGPHAGGKCMNGKCKCYNN-NH2; disulfide 7-29, 13-34, 17-36; N-terminus and C-terminus assumed) | Neither Cvill6 nor Cvill7 showed any effect | Neither Cvill6 nor Cvill7 showed any effect
